Experiments:
Format in all cases: in vivo
[1] = test system: Galium spurium; experiment: Test Example 4: herbicidal effect by application to foliage (diluvial soil, plastic box); details: for Q (Galium spurium) herbicidal effect grade: Application herbicide amount 320 g/ha, foliage application; for Q: herbicidal effect on Galium spurium: application to foliage, application herbicide amount 320 g/ha
In short: (§1)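 Read-out is a 0–5 visual grade of herbicidal ratio (5: ≥90%, almost withered; 0: ≤5%) taken three weeks after treatment. Compound was applied as a diluted emulsion to stem and leaf parts of 14-day greenhouse-grown plants (25° C. to 30° C.) at rates expressed as g/ha.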

[2] = test system: Avena fatua; experiment: as above; details: for I (Avena fatua) herbicidal effect grade: Application herbicide amount 320 g/ha, foliage application; for I: herbicidal effect on Avena fatua: application to foliage, application herbicide amount 320 g/ha
In short: as §1

[3] = test system: Alopecurus myosuroides; experiment: as above; details: for J (Alopecurus myosuroides) herbicidal effect grade: Application herbicide amount 320 g/ha, foliage application; for J: herbicidal effect on Alopecurus myosuroides: application to foliage, application herbicide amount 320 g/ha
In short: as §1

[4] = test system: Apera spica-venti.; experiment: as above; details: for L (Apera spica-venti.) herbicidal effect grade: Application herbicide amount 320 g/ha, foliage application; for L: herbicidal effect on Apera spica-venti.: application to foliage, application herbicide amount 320 g/ha
In short: as §1

[5] = test system: Echinochloa crus-galli var. crus-galli; experiment: as above; details: for H (Echinochloa crus-galli var. crus-galli) herbicidal effect grade: Application herbicide amount 320 g/ha, foliage application; for H: herbicidal effect on Echinochloa crus-galli var. crus-galli: application to foliage, application herbicide amount 320 g/ha
In short: as §1

[6] = test system: Digitaria ciliaris; experiment: as above; details: for F (Digitaria ciliaris) herbicidal effect grade: Application herbicide amount 320 g/ha, foliage application; for F: herbicidal effect on Digitaria ciliaris: application to foliage, application herbicide amount 320 g/ha
In short: as §1

[7] = test system: Chenopodium album; experiment: as above; details: for O (Chenopodium album) herbicidal effect grade: Application herbicide amount 320 g/ha, foliage application; for O: herbicidal effect on Chenopodium album: application to foliage, application herbicide amount 320 g/ha
In short: as §1

[8] = test system: Setaria viridis; experiment: as above; details: for G (Setaria viridis) herbicidal effect grade: Application herbicide amount 320 g/ha, foliage application; for G: herbicidal effect on Setaria viridis: application to foliage, application herbicide amount 320 g/ha
In short: as §1

[9] = test system: Amaranthus retroflexus; experiment: as above; details: for N (Amaranthus retroflexus) herbicidal effect grade: Application herbicide amount 320 g/ha, foliage application; for N: herbicidal effect on Amaranthus retroflexus: application to foliage, application herbicide amount 320 g/ha
In short: as §1

[10] = test system: Lolium multiflorum Lam.; experiment: as above; details: for K (Lolium multiflorum Lam.) herbicidal effect grade: Application herbicide amount 320 g/ha, foliage application; for K: herbicidal effect on Lolium multiflorum Lam.: application to foliage, application herbicide amount 320 g/ha
In short: as §1

[11] = test system: Veronica persica; experiment: as above; details: for R (Veronica persica) herbicidal effect grade: Application herbicide amount 320 g/ha, foliage application; for R: herbicidal effect on Veronica persica: application to foliage, application herbicide amount 320 g/ha
In short: as §1

[12] = test system: Abutilon theophrasti; experiment: as above; details: for M (Abutilon theophrasti) herbicidal effect grade: Application herbicide amount 320 g/ha, foliage application; for M: herbicidal effect on Abutilon theophrasti: application to foliage, application herbicide amount 320 g/ha
In short: as §1

[13] = test system: Scirpus juncoides; experiment: Test Example 2: herbicidal activity, application during weed generation in submerged conditions; details: Eighteenth Table; application herbicide amount 320 g/ha
In short: (§2)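 Paddy-type pot test: flooded soil, 4 cm depth, greenhouse 25–30 °C. Emulsion formulation diluted in water, applied to water surface at 1–2 leaf stage; rate expressed as g/ha. Read-out at 3 wk, 0–5 score.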

[14] = test system: Monochoria vaginalis; experiment: as above; details: Eighteenth Table; application herbicide amount 320 g/ha
In short: as §2

[15] = test system: Echinochloa oryzacola Vasing.; experiment: as above; details: Eighteenth Table; application herbicide amount 320 g/ha
In short: as §2

Structure (SMILES) | Q (Galium spurium) herbicidal effect grade [1] | I (Avena fatua) herbicidal effect grade [2] | J (Alopecurus myosuroides) herbicidal effect grade [3] | L (Apera spica-venti.) herbicidal effect grade [4] | H (Echinochloa crus-galli var. crus-galli) herbicidal effect grade [5] | F (Digitaria ciliaris) herbicidal effect grade [6] | O (Chenopodium album) herbicidal effect grade [7] | G (Setaria viridis) herbicidal effect grade [8] | N (Amaranthus retroflexus) herbicidal effect grade [9] | K (Lolium multiflorum Lam.) herbicidal effect grade [10] | R (Veronica persica) herbicidal effect grade [11] | M (Abutilon theophrasti) herbicidal effect grade [12] | B (Scirpus juncoides) herbicidal ratio grade [13] | C (Monochoria vaginalis) herbicidal ratio grade [14] | A (Echinochloa oryzicola Vasing.) herbicidal ratio grade [15] | Q: herbicidal effect on Galium spurium [1] | I: herbicidal effect on Avena fatua [2] | J: herbicidal effect on Alopecurus myosuroides [3] | L: herbicidal effect on Apera spica-venti. [4] | H: herbicidal effect on Echinochloa crus-galli var. crus-galli [5] | other results
O=C(Nc1nnco1)c1ccc(C(F)(F)F)n2c(-c3ccc(Cl)nc3)nnc12 [1-150] | 4 (Herbicidal ratio of 70% or more and less than 90%) | 3 (Herbicidal ratio of 40% or more and less than 70%) | 1 (Herbicidal ratio of 5% or more and less than 20%) | 3 (Herbicidal ratio of 40% or more and less than 70%) | 5 (Herbicidal ratio of 90% or more (almost completely withered)) | 4 (Herbicidal ratio of 70% or more and less than 90%) | 5 (Herbicidal ratio of 90% or more (almost completely withered)) | 3 (Herbicidal ratio of 40% or more and less than 70%) | 5 (Herbicidal ratio of 90% or more (almost completely withered)) | 3 (Herbicidal ratio of 40% or more and less than 70%) | 5 (Herbicidal ratio of 90% or more (almost completely withered)) | 3 (Herbicidal ratio of 40% or more and less than 70%) | 5 (Herbicidal ratio of 90% or more (almost completely withered)) | 4 (Herbicidal ratio of 70% or more and less than 90%) | 5 (Herbicidal ratio of 90% or more (almost completely withered)) | – | – | – | – | – | –
CCCSc1nnc2c(C(=O)Nc3nnco3)ccc(C(F)(F)F)n12 [1-108] | 3 (Herbicidal ratio of 40% or more and less than 70%) | 2 (Herbicidal ratio of 20% or more and less than 40%) | 1 (Herbicidal ratio of 5% or more and less than 20%) | 2 (Herbicidal ratio of 20% or more and less than 40%) | 5 (Herbicidal ratio of 90% or more (almost completely withered)) | 5 (Herbicidal ratio of 90% or more (almost completely withered)) | 5 (Herbicidal ratio of 90% or more (almost completely withered)) | 5 (Herbicidal ratio of 90% or more (almost completely withered)) | 5 (Herbicidal ratio of 90% or more (almost completely withered)) | 2 (Herbicidal ratio of 20% or more and less than 40%) | 5 (Herbicidal ratio of 90% or more (almost completely withered)) | 4 (Herbicidal ratio of 70% or more and less than 90%) | 4 (Herbicidal ratio of 70% or more and less than 90%) | 3 (Herbicidal ratio of 40% or more and less than 70%) | 4 (Herbicidal ratio of 70% or more and less than 90%) | – | – | – | – | – | –
CCSc1nnc2c(C(=O)Nc3nnnn3C)ccc(C(F)(F)F)n12 [2-024] | – | – | – | – | – | – | – | – | – | – | – | – | 4 (Herbicidal ratio of 70% or more and less than 90%) | 4 (Herbicidal ratio of 70% or more and less than 90%) | 5 (Herbicidal ratio of 90% or more (almost completely withered)) | 4 (Herbicidal ratio of 70% or more and less than 90%) | 4 (Herbicidal ratio of 70% or more and less than 90%) | 3 (Herbicidal ratio of 40% or more and less than 70%) | 5 (Herbicidal ratio of 90% or more (almost completely withered)) | 5 (Herbicidal ratio of 90% or more (almost completely withered)) | F: herbicidal effect on Digitaria ciliaris [6]: 5 (Herbicidal ratio of 90% or more (almost completely withered)); O: herbicidal effect on Chenopodium album [7]: 5 (Herbicidal ratio of 90% or more (almost completely withered)); G: herbicidal effect on Setaria viridis [8]: 5 (Herbicidal ratio of 90% or more (almost completely withered)); N: herbicidal effect on Amaranthus retroflexus [9]: 5 (Herbicidal ratio of 90% or more (almost completely withered)); K: herbicidal effect on Lolium multiflorum Lam. [10]: 4 (Herbicidal ratio of 70% or more and less than 90%); R: herbicidal effect on Veronica persica [11]: 5 (Herbicidal ratio of 90% or more (almost completely withered)); M: herbicidal effect on Abutilon theophrasti [12]: 5 (Herbicidal ratio of 90% or more (almost completely withered))
Cc1nnc(NC(=O)c2ccc(C(F)(F)F)n3c(C4(C)CC4(Cl)Cl)nnc23)o1 (stereo not drawn) [1-105] | 1 (Herbicidal ratio of 5% or more and less than 20%) | 1 (Herbicidal ratio of 5% or more and less than 20%) | 1 (Herbicidal ratio of 5% or more and less than 20%) | 1 (Herbicidal ratio of 5% or more and less than 20%) | 4 (Herbicidal ratio of 70% or more and less than 90%) | 4 (Herbicidal ratio of 70% or more and less than 90%) | 5 (Herbicidal ratio of 90% or more (almost completely withered)) | 1 (Herbicidal ratio of 5% or more and less than 20%) | 3 (Herbicidal ratio of 40% or more and less than 70%) | 1 (Herbicidal ratio of 5% or more and less than 20%) | 3 (Herbicidal ratio of 40% or more and less than 70%) | 3 (Herbicidal ratio of 40% or more and less than 70%) | 4 (Herbicidal ratio of 70% or more and less than 90%) | 3 (Herbicidal ratio of 40% or more and less than 70%) | 3 (Herbicidal ratio of 40% or more and less than 70%) | – | – | – | – | – | –
Cn1nnnc1NC(=O)c1ccc(C(F)(F)F)n2c(C3CCCC3)nnc12 [2-021] | – | – | – | – | – | – | – | – | – | – | – | – | 4 (Herbicidal ratio of 70% or more and less than 90%) | 4 (Herbicidal ratio of 70% or more and less than 90%) | 5 (Herbicidal ratio of 90% or more (almost completely withered)) | 4 (Herbicidal ratio of 70% or more and less than 90%) | 3 (Herbicidal ratio of 40% or more and less than 70%) | 3 (Herbicidal ratio of 40% or more and less than 70%) | 4 (Herbicidal ratio of 70% or more and less than 90%) | 5 (Herbicidal ratio of 90% or more (almost completely withered)) | F: herbicidal effect on Digitaria ciliaris [6]: 5 (Herbicidal ratio of 90% or more (almost completely withered)); O: herbicidal effect on Chenopodium album [7]: 5 (Herbicidal ratio of 90% or more (almost completely withered)); G: herbicidal effect on Setaria viridis [8]: 5 (Herbicidal ratio of 90% or more (almost completely withered)); N: herbicidal effect on Amaranthus retroflexus [9]: 5 (Herbicidal ratio of 90% or more (almost completely withered)); K: herbicidal effect on Lolium multiflorum Lam. [10]: 3 (Herbicidal ratio of 40% or more and less than 70%); R: herbicidal effect on Veronica persica [11]: 5 (Herbicidal ratio of 90% or more (almost completely withered)); M: herbicidal effect on Abutilon theophrasti [12]: 5 (Herbicidal ratio of 90% or more (almost completely withered))
